Experiment: Stopped-flow kinetic analysis of catalytic dismutation of superoxide
Assay type: biochemical
Details: pH=8.1 and 21° C., 80 mM Hepes buffer, absorbance at 245 nm
Excerpt: Stopped-flow kinetic analysis is an accurate and direct method for quantitatively monitoring the decay rates of superoxide in water. The stopped-flow kinetic analysis is suitable for screening compounds for SOD activity and catalytic activity of the compounds or complexes of the present invention for dismutating superoxide, as shown by stopped-flow analysis, correlate to treating the above disease states and disorders. […]
Water for buffer solutions was delivered from an in-house deionized water system to a Barnstead Nanopure Ultrapure Series 550 water system and then double distilled, first from alkaline potassium permanganate and then from a dilute EDTA solution. […] This system produces deoxygenated water that can be measured to have a conductivity of less than 2.0 nanomhos/cm^2.
The stopped-flow spectrometer system was designed and manufactured by Kinetic Instruments Inc. (Ann Arbor, Mich.) and was interfaced to a MAC IICX personal computer. […] Since the published extinction coefficient of superoxide in H2O at 245 nm is ˜2250 M^−1 cm^−1 (1), an initial absorbance value of approximately 0.3-0.5 would be expected for a 2-cm path length cell, and this was observed experimentally. […]

## OCCCC1NCCNCCNCCNCCNC1CCCO.[Cl][Mn][Cl] (stereo not drawn) [Example 1, [Manqanese(II)dichloro (trans-2,3-bis(3-hydroxypropyl)-1,4,7,10,13-pentaazacyclopentadecane)]]
  catalytic rate constant for dismutation of superoxide (kcal): 1.8e+07 M⁻¹ s⁻¹

— patent publication US6525041B1, “Manganese or iron complexes of nitrogen-containing macrocyclic ligands effective as catalysts for dismutating superoxide” (Pharmacia Corporation, priority 1995, dated 2003)
